Data reported in patent US7396847B2, “Oxazolidinone and/or isoxazoline as antibacterial agents” (AstraZeneca AB, priority 2001, dated 2008).
≈ marks a conversion by molar mass, not a printed value.

Experiments:
[1] = system: Staphylococcus aureus MRQR (methicillin resistant and quinolone resistant); assay: MIC, agar-dilution, Staphylococci; assay type: cell-based; settings: inoculum 10^4 CFU/spot, 37° C., 24 hours
Protocol: (§1) The following results were obtained on a standard in-vitro test system. The activity is described in terms of the minimum inhibitory concentration (MIC) determined by the agar-dilution technique with an inoculum size of 10^4 CFU/spot. Typically, compounds are active in the range 0.01 to 256 μg/ml.
(§2) Staphylococci were tested on agar, using an inoculum of 10^4 CFU/spot and an incubation temperature of 37° C. for 24 hours—standard test conditions for the expression of methicillin resistance.

[2] = system: Staphylococcus aureus MSQS (methicillin sensitive and quinolone sensitive); assay: MIC, agar-dilution, Staphylococci; assay type: cell-based; settings: inoculum 10^4 CFU/spot, 37° C., 24 hours
Protocol: as §1, §2

Streptococcus pneumoniae = assay: MIC, agar-dilution on agar with 5% defibrinated horse blood, Streptococci; assay type: cell-based; settings: 10^4 CFU/spot, 37° C., 5% carbon dioxide, 48 hours
Protocol: as §1
(§3) Streptococci and enterococci were tested on agar supplemented with 5% defibrinated horse blood, an inoculum of 10^4 CFU/spot and an incubation temperature of 37° C. in an atmosphere of 5% carbon dioxide for 48 hours—blood is required for the growth of some of the test organisms. Fastidious Gram negative organisms were tested in Mueller-Hinton broth, supplemented with hemin and NAD, grown aerobically for 24 hours at 37° C., and with an innoculum of 5×10^4 CFU/well.

Streptococcus pyogenes = assay: as above; assay type: cell-based; settings: 10^4 CFU/spot, 37° C., 5% carbon dioxide, 48 hours
Protocol: as §1, §3

Haemophilus influenzae = assay: MIC, fastidious Gram negative organisms in Mueller-Hinton broth; assay type: cell-based; settings: Mueller-Hinton broth with hemin and NAD, aerobic, 24 hours, 37° C., 5×10^4 CFU/well
Protocol: as §1, §3

Moraxella catarrhalis = assay: as above; assay type: cell-based; settings: Mueller-Hinton broth with hemin and NAD, aerobic, 24 hours, 37° C., 5×10^4 CFU/well
Protocol: as §1, §3

melting point [°C] | MIC [1] [µg/mL] | MIC [2] [µg/mL] | MIC (Streptococcus pneumoniae) [µg/mL] | MIC (Streptococcus pyogenes) [µg/mL] | MIC (Haemophilus influenzae) [µg/mL] | MIC (Moraxella catarrhalis) [µg/mL] | Compound
257 to 260 |  |  |  |  |  |  | CC(=O)NC[C@H]1CN(c2ccc(-c3ccc(N4C[C@H](CNC(C)=O)OC4=O)s3)s2)C(=O)O1 [Example 62, N-{[(5S)-3-(5′-{5-[(Acetylamino)methyl]-2-oxo-1,3-oxazolidin-3-yl}-2,2′-bithien-5-yl)-2-oxo-1,3-oxazolidin-5-yl]methyl}acetamide]
 | 0.5 (≈ 0.995 µM) | 0.25 (≈ 0.498 µM) | 0.06 (≈ 0.119 µM) | 0.13 (≈ 0.259 µM) | 2 (≈ 3.98 µM) | 0.5 (≈ 0.995 µM) | CC(=O)NC[C@H]1CN(c2ccc(-c3ccc(N4C[C@H](CNC(C)=O)OC4=O)cc3F)c(F)c2)C(=O)O1 [Example 1, (5S,5′S)-N-(3-{4′-[5-(Acetylamino-methyl)-2-oxo-oxazolidin-3-yl]-2,2′-difluoro-biphenyl-4-yl}-2-oxo-oxazolidin-5-ylmethyl)-acetamide]
